{"source": "patent US12472185B2", "about": "“Methods for killing antibiotic tolerant bacteria” (THE PENN STATE RESEARCH FOUNDATION, priority 2020, dated 2025)", "key": {"P. aeruginosa PA14": {"test_system": "P. aeruginosa PA14", "assay": "LIVE/DEAD staining", "format": "cell-based, Pseudomonas aeruginosa", "settings": "100 μM, 1 hr", "description": "(§1) FIG. 4. NPIMA lyses Escherichia coli, Pseudomonas aeruginosa, and Staphylococcus aureus. LIVE/DEAD staining of (a) E. coli BW25113 after 0.75 hr, (b) P. aeruginosa PA14 after 1 hr, and (c) S. aureus after 1 hr treatment with NPIMA at 100 μM. […] White arrows indicate lysed cells. Representative images are shown. Scale bar=[…]. NPIMA, 5-nitro-3-phenyl-1H-indol-2-ylmethylamine hydrochloride.\n(§2) Cell viability after treating with NPIMA was determined using the using the LIVE/DEAD BacLight Bacterial Viability Kit (catalog number, L7012; Molecular Probes, Inc., Eugene, OR). The fluorescence signal was analyzed via a Zeiss Axioscope.A1 using excitation at 485 nm and emission at 530 nm for green fluorescence and using excitation at 485 nm and emission at 630 nm for red fluorescence."}, "E. coli BW25113 [1]": {"test_system": "E. coli BW25113", "assay": "LIVE/DEAD staining", "format": "cell-based, Escherichia coli", "settings": "100 μM, exponentially-growing cells", "description": "as §1, §2"}, "S. aureus": {"test_system": "S. aureus", "assay": "Lysis assays (total protein and DNA in supernatants)", "format": "cell-based, Staphylococcus aureus", "settings": "100 μM, 6 hr", "description": "FIG. 5. NPIMA lyses Escherichia coli, Pseudomonas aeruginosa, and Staphylococcus aureus. Total protein (a) and DNA (b) found in supernatants as evidence of cell lysis after treatment of cells at a turbidity of 0.8 at 600 nm with 100 μM NPIMA after 1 hr for E. coli and P. aeruginosa and 6 hr for S. aureus. NPIMA, 5-nitro-3-phenyl-1H-indol-2-yl-methylamine hydrochloride.\nExponentially-growing E. coli BW25113 cells (turbidity 0.8 at 600 nm) were washed twice with 0.85% NaCl, resuspended in 1 ml of 1×PBS, and NPIMA (100 μM) was added for 1 hr for E. coli and P. aeruginosa and 6 hr for S. aureus with shaking at 250 rpm (0.1% DMSO was used as the negative control). Cell supernatants were collected after centrifuging at 6,500 g (4° C. for 15 min), and total protein was measured by the Bicinchoninic Acid (BCA) protein assay Kit (Prod #23227; Pierce). DNA in the supernatant (199 μl) was detected by adding 1 μl of Picogreen (P7589; Invitrogen) and incubating for 5 min at room temperature in the dark room. The fluorescence signal was read by a Tecan microplate reader (Infinite M200PRO) with 480 nm excitation and 520 nm emission by utilizing a calibration curved made with plasmid pEX18Ap at 0, 0.004, 0.008, 0.016, 0.063, 0.125, 0.25, and 0.5 ng/μl."}, "[2]": {"test_system": "natural E. coli persister cells", "assay": "Survival of naturally-occurring persister cells (ampicillin only)", "format": "cell-based, Escherichia coli", "settings": "NPIMA, compared with rifampicin-generated persisters", "description": "FIG. 9. NPIMA kills naturally-occurring E. coli persister cells. Survival of E. coli with 5-iodoindole and solvent negative control (DMSO) also shown. Asterisk (*) indicates no viable cells were detected. The persister cells were harvested at stationary-phase of E. coli (turbidity of 6.0 at 600 nm) and non-persister cells were removed by treatment.\nE. coli persister cells were prepared following our previous method (Kim, Yamasaki, et al., 2018; Kwan, Valenta, Benedik, & Wood, 2013). Exponentially-growing cells (turbidity of 0.8 at 600 nm) were treated with rifampicin (100 μg/ml for 30 min) to stop transcription, washed, and any remaining nonpersister cells were lysed by ampicillin in LB (100 μg/ml for 3 hr). Cells were harvested by centrifugation (17,000 g for 1 min) and washed with 1× phosphate-buffered saline buffer (PBS, 8 g NaCl, 0.2 g KCl, 1.15 g Na2HPO4, and 0.2 g KH2PO4 per 1,000 ml) twice to remove all possible carbon sources, then resuspended with 1×PBS. […]\nFor bacterial viability, cells were washed twice with 0.85% NaCl, resuspended in 1×PBS, and cell counts were determined via the drop assay (Donegan, Matyac, Seidler, & Porteous, 1991). […] Cell viability was determined via a cell counting kit (CCK-8 Kit, ab228554; Abcam), and cytotoxicity was determined via the lactate dehydrogenase (LDH) assay (LDH Assay Kit, MK401; Takara)."}, "[3]": {"test_system": "P. aeruginosa PA14 exponentially-growing cells", "assay": "Killing at one MIC in PBS, NPIMA compared with cisplatin", "format": "cell-based, Pseudomonas aeruginosa", "settings": "3 hr", "text": "FIG. 7. NPIMA compared width cisplatin for killing Pseudomonas aeruginosa, Escherichia coli, and Staphylococcus aureus. Survival of exponentially-growing cells of P. aeruginosa PA14 (a), E. coli (b), and S. aureus (c) treated with one MIC of NPIMA (♦) and cisplatin (●) for 3 hr in PBS. DMSO (▴) and NaClO4 (*) were used as a negative controls. MIC, minimum inhibitory concentration; NPIMA, 5-nitro-3-phenyl-1H-indol-2-yl-methylamine hydrochloride.\nFor bacterial viability, cells were washed twice with 0.85% NaCl, resuspended in 1×PBS, and cell counts were determined via the drop assay (Donegan, Matyac, Seidler, & Porteous, 1991). For human cell viability, pre-cultured human cancer HT-29 cells were dispensed in 98 μl in 96-well plates with approximately 5,000 cells/well. NPIMA was added (2 μl) to produce concentrations of 5, 10, 100, and 200 μM. For controls, Triton X-100 (positive control) and DMSO (negative solvent control), were used, and the medium was used for background. Plates were incubated in a humidified incubator (37° C., 5% CO2) for 24 hr. Cell viability was determined via a cell counting kit (CCK-8 Kit, ab228554; Abcam), and cytotoxicity was determined via the lactate dehydrogenase (LDH) assay (LDH Assay Kit, MK401; Takara)."}, "E. coli BW25113 [4]": {"test_system": "E. coli BW25113", "assay": "Transmission electron microscopy (TEM)", "format": "cell-based, Escherichia coli", "settings": "100 μM", "description": "FIG. 6. NPIMA damages the Escherichia coli cell membrane. Transmission electron microscopic (TEM) images of E. coli BW25113 after NPIMA (100 μM) treatment for 40 min. Two representative images are shown. The arrow indicates membrane damage. NPIMA, 5-nitro-3-phenyl-1H-indol-2-ylmethylamine hydrochloride.\nFor transmission electron microscopy (TEM), E. coli BW25113 was grown to a turbidity of 0.8 at OD600, contacted with NPIMA at 100 μM for 0.75 hr in PBS, centrifuged at 8000 g, and resuspended in PBS. The samples were fixed with buffer (2.5% glutaraldehyde in 0.1M cacodylate buffer, pH 7.4) and negative stained with 2% uranyl acetate in the dark for 1 hr, then dehydrated. The sectioned specimens were stained again with uranyl acetate and lead citrate after dehydration and resin embedded. TEM images were obtained using a JEOL JEM 1200 EXII instrument."}}, "data": [{"smiles": "Cl.NCc1[nH]c2ccc([N+](=O)[O-])cc2c1-c1ccccc1", "note": "[NPIMA, [(5-nitro-3-phenyl-1H-indol-2-yl)methyl]amine hydrochloride]", "values": [{"measurement": "cell lysis seen by LIVE/DEAD staining (extracellular DNA)", "setting": "P. aeruginosa PA14", "result": "lysed"}, {"measurement": "cells killed (LIVE/DEAD)", "setting": "P. aeruginosa PA14", "result": 100, "unit": "%"}, {"measurement": "cell lysis seen by LIVE/DEAD staining (extracellular DNA)", "setting": "E. coli BW25113 [1]", "result": "lysed"}, {"measurement": "DNA released compared with DMSO alone", "setting": "S. aureus", "result": "1.82±0.05", "unit": "fold"}, {"measurement": "total protein released compared with DMSO alone", "setting": "S. aureus", "result": "2.9±0.1", "unit": "fold"}, {"measurement": "killing of natural persisters (ampicillin treatment only)", "setting": "[2]", "result": "killed in an identical manner"}, {"measurement": "effectiveness relative to cisplatin", "setting": "[3]", "result": "less effective"}, {"measurement": "cell envelope damage by TEM", "setting": "E. coli BW25113 [4]", "result": "clear cell envelope damage"}]}]}
